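Exposure lasted 48 hours, with cells grown in 96-well plates and compounds tested at five concentrations. TGI denotes the concentration required for complete inhibition of growth.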
Tests used:
Assay in all cases: growth of human tumour cells (NCI), 48 h
A498 renal = test system: A498 renal
A549 NSCLC = test system: A549 NSCLC
BT-549 breast = test system: BT-549 breast
CAKI-1 renal = test system: CAKI-1 renal
CCRF-CEM leukemia = test system: CCRF-CEM leukemia
COLO 205 colon = test system: COLO 205 colon
EKVX NSCLC = test system: EKVX NSCLC
HCC-2998 colon = test system: HCC-2998 colon
HCT-15 colon = test system: HCT-15 colon
KM12 colon = test system: KM12 colon
LOX IMVI melanoma = test system: LOX IMVI melanoma
M14 melanoma = test system: M14 melanoma
MDA-MB-231 breast = test system: MDA-MB-231 breast
MDA-N = test system: MDA-N
SF-295 CNS = test system: SF-295 CNS
SK-MEL-5 melanoma = test system: SK-MEL-5 melanoma
SN12C renal = test system: SN12C renal
HOP-62 NSCLC = test system: HOP-62 NSCLC
HL-60(TB) leukemia = test system: HL-60(TB) leukemia

Row | SMILES | TGI (A498 renal) | TGI (A549 NSCLC) | TGI (BT-549 breast) | TGI (CAKI-1 renal) | TGI (CCRF-CEM leukemia) | TGI (COLO 205 colon) | TGI (EKVX NSCLC) | TGI (HCC-2998 colon) | TGI (HCT-15 colon) | TGI (KM12 colon) | TGI (LOX IMVI melanoma) | TGI (M14 melanoma) | TGI (MDA-MB-231 breast) | TGI (MDA-N) | TGI (SF-295 CNS) | TGI (SK-MEL-5 melanoma) | TGI (SN12C renal) | TGI (HOP-62 NSCLC) | TGI (HL-60(TB) leukemia)
1 | CC(C)=C[C@H]1CCC2(OCCO2)[C@]1(C)COCc1ccccc1 | 66.7 µM | > 100 µM | > 100 µM | > 100 µM | 34.5 µM | 32.3 µM | > 100 µM | 37.4 µM | > 100 µM | > 100 µM | 31 µM | 99.4 µM | 53.7 µM | > 100 µM | > 100 µM | 32 µM | 68.5 µM |  | 
2 | O=[N+]([O-])c1ccc(S(=O)(=O)n2c3ccc(Br)cc3c3nc4ccccc4nc32)cc1 | > 100 µM | > 100 µM |  | > 100 µM | > 100 µM | > 100 µM |  | > 100 µM | > 100 µM | > 100 µM | > 100 µM | > 100 µM | > 100 µM | > 100 µM | > 100 µM | > 100 µM | > 100 µM | > 100 µM | 
3 | O=C(/C=C/c1ccc2ccccc2c1)NCc1ccc(C(=O)NCCc2ccccc2)cc1 | > 100 µM | > 100 µM |  | > 100 µM | > 100 µM | > 100 µM |  | > 100 µM | > 100 µM | > 100 µM | > 100 µM | > 100 µM | > 100 µM | > 100 µM | > 100 µM | > 100 µM | > 100 µM | > 100 µM | > 100 µM
4 | O=C1c2ccccc2C(=O)N1CCCCNOCCCN1C(=O)c2ccccc2C1=O | > 100 µM | > 100 µM | > 100 µM | > 100 µM | > 100 µM | > 100 µM | > 100 µM | > 100 µM | > 100 µM | > 100 µM | > 100 µM | > 100 µM | > 100 µM | > 100 µM | > 100 µM | > 100 µM | > 100 µM | > 100 µM | 
5 | O=C1CC(c2cccc([N+](=O)[O-])c2)C2(C(=O)NC(=O)NC2=O)C(c2cccc([N+](=O)[O-])c2)C1 (configuration not stated) | > 100 µM | > 100 µM | > 100 µM |  | > 100 µM | > 100 µM |  |  | > 100 µM | > 100 µM | > 100 µM | > 100 µM | > 100 µM | > 100 µM | > 100 µM | > 100 µM | > 100 µM | > 100 µM | > 100 µM
6 | COC(=O)C1=CS/C(=C2\S[C@@H]3[C@H](S2)[C@H]2C=C[C@@H]3C2)S1 | > 100 µM | > 100 µM | > 100 µM | > 100 µM | > 100 µM | > 100 µM |  |  | > 100 µM | > 100 µM | > 100 µM | > 100 µM | > 100 µM | > 100 µM | 17.9 µM | > 100 µM | > 100 µM | > 100 µM | 57.9 µM
7 | CCCCC1Cc2ccccc2-c2nc3ccccc3n21 (configuration not stated) | 30.6 µM |  |  | 31.9 µM |  |  | 50 µM | 27.8 µM | 28.4 µM | 38.5 µM | 31.6 µM | 36.3 µM | 31.7 µM | 29.2 µM | 30.8 µM | 31.1 µM |  | 36.5 µM | 0.231 µM
8 | C[N+]1(C)CCc2cc(O)c(O)cc2C1Cc1ccc(O)c(O)c1 (configuration not stated) | > 100 µM | > 100 µM | > 100 µM | > 100 µM |  | > 100 µM | > 100 µM |  | > 100 µM | > 100 µM | 81 µM | > 100 µM | > 100 µM | 89.1 µM | > 100 µM | > 100 µM | > 100 µM | > 100 µM | 54.8 µM
9 | CN(C)CCCN=c1c2ccccc2n(O)c2ccccc12 | > 100 µM | > 100 µM | 63.4 µM | > 100 µM | > 100 µM | 26.9 µM | > 100 µM |  | > 100 µM | > 100 µM | > 100 µM | > 100 µM | > 100 µM | > 100 µM | > 100 µM | > 100 µM | > 100 µM | > 100 µM | > 100 µM
10 | CCOC1=NC(O)c2cccn2-c2sccc21 (configuration not stated) | > 100 µM | > 100 µM |  | > 100 µM |  | > 100 µM |  | > 100 µM | > 100 µM | > 100 µM |  | > 100 µM | > 100 µM | > 100 µM | > 100 µM | > 100 µM | > 100 µM | > 100 µM | 
11 | N#Cc1[nH]c(=O)n(-c2ccccc2)c1N | > 10 µM | > 10 µM |  |  | > 10 µM | > 10 µM | > 10 µM | > 10 µM | > 10 µM | > 10 µM | 1.58 µM | > 10 µM | > 10 µM | > 10 µM | 3.72 µM | > 10 µM | > 10 µM | > 10 µM | > 10 µM
12 | CSc1nnc(SC)nn1 | > 100 µM | 43.3 µM | 29.7 µM | 31.4 µM | 4.53 µM | 32.7 µM | 30.8 µM |  | 35.2 µM | 30 µM | 38 µM | 28.9 µM | 39.7 µM | 30.1 µM | 33.9 µM | 29.6 µM | 39.7 µM | 29.1 µM | 11.6 µM
13 | CCCc1c(O)nc(Nc2nc3ccccc3[nH]2)[nH]c1=O | > 100 µM | > 100 µM | > 100 µM | > 100 µM | > 100 µM | > 100 µM | > 100 µM |  | > 100 µM | > 100 µM |  | > 100 µM | > 100 µM | > 100 µM | > 100 µM | > 100 µM | > 100 µM |  | > 100 µM
14 | CN(C(=O)Cc1cccc(N=C=S)c1)[C@H]1CCCC[C@@H]1N1CCCC1 | 32.8 µM | 33.9 µM | 23.8 µM | 29.5 µM | 32.9 µM | 25.2 µM | 39.6 µM |  | 31.2 µM | 32.1 µM | 31.3 µM | 41.1 µM | 31.8 µM | 27.7 µM | > 100 µM | 20.4 µM | 29.5 µM | 33.2 µM | 
